Experimental data taken from article PMC9336311 (Cell reports, 2022).

Tests used:
[1] = biological target: CaMKII kinase domain (Homo sapiens, UniProt Q9UQM7); assay: Coupled kinase assay with Syntide-2 as substrate; format: biochemical; conditions: saturating GluN2B S1303D or high levels of CaMKIIN
[2] = biological target: CaMKII kinase domain (D135N) (Homo sapiens, UniProt Q9UQM7, D135N); assay: ITC binding to D135N CaMKII kinase domain; conditions: protein/peptide concentrations high enough to characterize a Kd of several hundred micromolar
[3] = biological target: CaMKII kinase domain (Homo sapiens, UniProt Q9UQM7, D135N); assay: Fluorescence polarization competition assay against GluN2B; format: binding; conditions: FP competition, up to low millimolar concentrations
Chain of CaMKII kinase domain (Homo sapiens, UniProt Q9UQM7, D135N) (Q9UQM7 7-274 D135N): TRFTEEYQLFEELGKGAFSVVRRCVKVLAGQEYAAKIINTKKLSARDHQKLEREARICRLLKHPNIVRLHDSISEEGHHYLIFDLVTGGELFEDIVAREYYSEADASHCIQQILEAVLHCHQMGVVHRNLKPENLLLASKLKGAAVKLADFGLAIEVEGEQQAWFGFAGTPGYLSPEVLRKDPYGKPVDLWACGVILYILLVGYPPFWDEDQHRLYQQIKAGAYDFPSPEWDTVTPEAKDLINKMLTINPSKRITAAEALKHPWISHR

Chain of CaMKII kinase domain (D135N) (Q9UQM7 7-274 D135N): as above
Chain of CaMKII kinase domain (Homo sapiens, UniProt Q9UQM7) (Q9UQM7 7-274): as the sequence (Q9UQM7 7-274 D135N) above, with N129D counted along it

Row | Sequence | effect on Syntide-2 phosphorylation [1] | binding in ITC [2] | competition with GluN2B peptide [3]
1 | MSEILPYGEDKMGRFGADPEGSDLSFSCRLQDTNSFFAGNQAKRPPKLGQIGRAKRVVIEDDRIDDVLKGMGEKPPSGV [CaMKIIN] | completely inhibit |  | 
2 | PLARTLSVAGLPGKK [Syntide-2] |  | did not see any appreciable binding | could not be competed off
